Test results: patent publication US20110129455A1, “INHIBITORS OF AKT ACTIVITY” (priority 2008, published 2011)

Biological target: T1, full length AKT1 (Homo sapiens, UniProt P31749)
T1 construct: Full-length human AKT1 gene was amplified by PCR; His tag (from vector pFastBacHTb; N-terminal position is own knowledge of the vector) (N); made in house; host or cells: baculovirus; Sf9 / T. ni insect cells
Assay: Full-length AKT enzyme assay (substrate phosphorylation, SPA)
Assay type: biochemical
Settings: in at least one experimental run; pIC50 = -log(IC50), IC50 in molar units; 4 uM ATP, 10 nM activated AKT enzyme; read-out: pIC50 against full length AKT1 (converted)
From the text: Cloning of Full-Length Human (FL) AKT1:
Full-length human AKT1 gene was amplified by PCR from a plasmid containing myristylated-AKT1-ER (gift from Robert T. Abraham, Duke University under MTA, described in Klippel et al. in Molecular and Cellular Biology 1998 Volume 18 p. 5699) using the 5′ primer: SEQ. ID NO: 2
5′ […] 3′ and the 3′ primer: SEQ. ID NO: 3 […] 3′. The 5′ primer included a BamHl site and the 3′primer included an Xhol site for cloning purposes. The resultant PCR product was subcloned in pcDNA3 as a BamHl/Xhol fragment. A mutation in the sequence (TGC) coding for a Cysteine^25 was converted to the wild-type AKT1 sequence (CGC) coding for an Arginine^25 by site-directed mutagenesis using the QuikChange® Site Directed Mutagenesis Kit (Stratagene). The AKT1 mutagenic primer: SEQ. ID NO: 4 5′ […] and selection primer: SEQ. […] For expression/purification purposes, AKT1 was isolated as a BamHl/Xhol fragment and cloned into the BamHl/Xhol sites of pFastbacHTb (Invitrogen).
Expression was done using the BAC-to-BAC Baculovirus Expression System from Invitrogen (catalog #10359-016). […]
Compounds of the present invention were tested for AKT 1, 2, and 3 protein serine kinase inhibitory activity in substrate phosphorylation assays. […] Substrate phosphorylation was detected by the following procedure. […]

T1 sequence (P31749 whole entry): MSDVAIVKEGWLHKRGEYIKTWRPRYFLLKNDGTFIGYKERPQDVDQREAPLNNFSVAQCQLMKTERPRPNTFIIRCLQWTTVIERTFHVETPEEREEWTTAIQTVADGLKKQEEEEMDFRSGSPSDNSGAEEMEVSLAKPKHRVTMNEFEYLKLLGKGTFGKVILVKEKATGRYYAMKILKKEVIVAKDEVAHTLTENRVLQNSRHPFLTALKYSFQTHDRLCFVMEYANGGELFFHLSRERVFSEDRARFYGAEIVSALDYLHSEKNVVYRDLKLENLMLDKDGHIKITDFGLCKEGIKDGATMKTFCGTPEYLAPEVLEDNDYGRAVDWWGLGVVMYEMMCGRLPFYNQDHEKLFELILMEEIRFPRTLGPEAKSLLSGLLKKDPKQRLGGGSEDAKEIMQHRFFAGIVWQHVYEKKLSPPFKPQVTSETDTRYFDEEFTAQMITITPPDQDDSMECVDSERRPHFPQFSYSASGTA

IC50: 6.31 nM
SMILES: Cn1nccc1-n1cc(C(=O)N[C@H](CN)Cc2cccc(F)c2)cc1Cl [Example 2, N-{(1S)-2-amino-1-[(3-fluorophenyl)methyl]ethyl}-5-chloro-1-(1-methyl-1H-pyrazol-5-yl)-1H-pyrrole-3-carboxamide]
